According to patent US11712425B2, “Immunoregulatory role of 3-OH-kynurenamine and uses thereof” (ALBERT EINSTEIN COLLEGE OF MEDICINE, priority 2018, dated 2023):
“Also recorded” adds a separate entry of the source.

Tests used:
AhR = target: T1, AhR (Mus musculus, UniProt P30561); test: AhR luciferase reporter (Cyp1a1 promoter) in mouse embryonic fibroblasts; format: cell-based; settings: for AhR activation (luciferase reporter): MEFs constitutively expressing AhR, stimulated 24 hours, different concentrations
T1 construct: mouse embryonic fibroblasts (MEFs) constitutively expressing AhR; endogenous in cells; host or cells: mouse embryonic fibroblasts (MEFs)
T1 sequence (P30561 10-848): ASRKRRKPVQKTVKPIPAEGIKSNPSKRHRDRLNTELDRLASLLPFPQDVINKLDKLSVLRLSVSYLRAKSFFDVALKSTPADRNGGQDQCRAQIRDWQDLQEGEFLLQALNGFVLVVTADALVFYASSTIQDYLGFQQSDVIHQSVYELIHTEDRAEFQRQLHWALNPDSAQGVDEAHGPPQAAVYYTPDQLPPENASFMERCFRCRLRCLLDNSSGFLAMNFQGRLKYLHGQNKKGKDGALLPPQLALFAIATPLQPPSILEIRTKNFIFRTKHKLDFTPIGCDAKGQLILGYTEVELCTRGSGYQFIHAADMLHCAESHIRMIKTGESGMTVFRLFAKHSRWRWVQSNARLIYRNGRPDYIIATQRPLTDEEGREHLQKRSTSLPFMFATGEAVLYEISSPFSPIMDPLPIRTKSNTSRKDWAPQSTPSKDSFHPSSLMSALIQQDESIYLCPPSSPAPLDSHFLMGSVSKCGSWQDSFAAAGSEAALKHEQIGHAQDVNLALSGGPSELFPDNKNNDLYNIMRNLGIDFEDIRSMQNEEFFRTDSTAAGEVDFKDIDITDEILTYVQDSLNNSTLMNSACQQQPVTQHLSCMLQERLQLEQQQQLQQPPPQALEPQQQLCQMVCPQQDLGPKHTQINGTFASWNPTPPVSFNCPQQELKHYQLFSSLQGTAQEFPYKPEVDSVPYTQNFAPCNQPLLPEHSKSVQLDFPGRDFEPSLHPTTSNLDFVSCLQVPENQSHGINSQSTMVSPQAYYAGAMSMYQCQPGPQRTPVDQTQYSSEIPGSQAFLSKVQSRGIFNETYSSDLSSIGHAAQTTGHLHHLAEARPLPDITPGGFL
Experimental: Cells were either untreated or stimulated for 24 hours with different concentrations of 3-OH-kynurenamine and, as positive control, L-kynurenine, the known AhR agonist.

[1] = target: T2, aromatic L-amino acid decarboxylase (AADC) (Homo sapiens, UniProt P20711); test: Decarboxylation by recombinant AADC; format: biochemical; settings: enzyme plus PLP, monitored over 40 min, CO2 production
T2 construct: full-length recombinant AADC was incubaled with 3-OH-kynurenine
T2 sequence (P20711 1-480): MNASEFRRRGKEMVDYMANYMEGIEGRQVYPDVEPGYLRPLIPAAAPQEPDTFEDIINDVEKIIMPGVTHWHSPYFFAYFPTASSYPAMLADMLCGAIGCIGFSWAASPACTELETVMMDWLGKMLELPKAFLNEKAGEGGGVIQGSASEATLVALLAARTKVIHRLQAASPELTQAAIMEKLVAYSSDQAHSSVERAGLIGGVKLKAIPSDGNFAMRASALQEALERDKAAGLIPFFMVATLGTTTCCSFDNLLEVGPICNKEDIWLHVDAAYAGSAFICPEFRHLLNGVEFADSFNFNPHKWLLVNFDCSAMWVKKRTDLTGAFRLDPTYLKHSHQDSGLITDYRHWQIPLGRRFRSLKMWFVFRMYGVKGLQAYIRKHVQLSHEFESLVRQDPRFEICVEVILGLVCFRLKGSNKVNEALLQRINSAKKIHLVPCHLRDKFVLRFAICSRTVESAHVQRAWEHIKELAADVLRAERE
Experimental: FIG. 2. […] Tryptophan, a natural substrate for aromatic L-amino acid decarboxylase (AADC) was incubated with the enzyme and the PLP catalyst. In a separate reaction 3-OH-kynurenine was incubated under the same experimental conditions. Reactions were monitored over a 40 min. period. […] One of a triplicate experiment is shown.
As a next step, to determine whether AADC is the natural enzyme processing 3-OH-L-kynurenine into 3-OH-kynurenamine, full-length recombinant AADC was incubaled with 3-OH-kynurenine and its conversion to 3-OH-kynurenamine was followed by detecting CO2 production due to decarboxylation.

cDCs = test: Gene expression by RT-PCR in conditioned cDCs; format: cell-based, mouse; settings: cDCs from spleens of C57BL/6 mice, 30 μM, after 2-6 hr
Experimental: FIG. 3A-3D. 3-OH-kynurenamine confers immunosuppressive properties on DCs. […] Analysis (B) was calculated from 3 independent experiments. C and D) mouse cDCs (C) and human PBMCs (D). After incubation with 30 (C) or 2 (D) μM kynurenines, gene expression was evaluated by RT-PCR at 6− (C) or 6 and 18 (D) h. Data were normalized to GAPDH expression and presented relative to results in untreated cells (dotted line, one-fold). Mean fold induction+SD of triplicate experiments.
(§1) Biological Role of 3-OH-Kynurenamine. Trp metabolites are known to exert several functions in immune cells. In dendritic cells, either cDCs or pDCs, incubation with L-kynurenine and/or 3-OH-anthranilic acid induces IDO1 expression and production of immunosuppressive TGF-β production. In turn, cDCs and pDCs conditioned with these Trp catabolites increase differentiation of T lymphocytes into Treg cells in vitro and, when administered in vivo, induce antigen-specific T cell tolerance.

[2] = tested on: antigen-specific delayed-type hypersensitivity; test: In vivo suppressive activity of conditioned DCs (delayed-type hypersensitivity, footpad skin test); parameters: species or system mice; settings: cDCs conditioned 24 hr with 30 μM, pulsed with IGRP peptide; skin reactivity at 15 days
Experimental: FIG. 4A-4B. […] B) In vivo suppressive activity of CD8^− DCs, pulsed with the IGRP peptide (an autoantigen in autoimmune diabetes), in combination with a minority fraction (5%) of CD8^− DCs either untreated (Unt) or pretreated with 30 μM 3-OH-kynurenamine for 24 h and pulsed with the same peptide prior in vivo administration; analysis of skin reactivity of recipient mice to the eliciting peptide at 15 days is presented as change in footpad weight. ***P<0.001 (mean weight of experimental versus control footpads, i.e., injected with vehicle alone). Results are presented as fold induction±SD of triplicate experiments.
as §1

dendritic cells = test: Quantitative proteomics of dendritic cells treated with 3-OH-kynurenamine; format: cell-based
NFκB pathway = test: Western blot of NFκB pathway in DCs; format: cell-based; settings: 3 independent experiments
Psoriasis model = test: Imiquimod-induced psoriasis model; format: in vivo, mice; settings: Imiquimod 7 days, 50 mg/kg ip for 7 days
Experimental: FIG. 5A-5B. […] Some of the mice were also treated with 3-OH-Kynurenamine (50 mg/kg ip; for 7 days). Controls are mice that were shaved but left untreated; Imiquimod and Imiquimod plus 3-OH-Kynurenamine refers to the specific treatments. After 7 days mice were sacrificed and skin processed for H&E staining.
as §1

[3] = tested on: nephrotoxic nephritis (NTN); test: Nephrotoxic nephritis (NTN) model; format: in vivo, 129/Sv mice; settings: daily intraperitoneal 50 mg/kg from day +4 until day +12
Experimental: FIG. 6A-6F. […] Ten week old female 129/Sv mice were immunized intraperitoneally with rabbit IgG in complete Freund's adjuvant (day 0). Five days later, mice received an intravenous injection of 90 ul of pre-formed rabbit anti-mouse glomerular basement membrane antibodies (N-Ab) or PBS. Starting at day +4, mice started receiving daily intraperitoneal injections of 50 mg/kg of 3-OH-kynurenamine (n=6) or vehicle control (n=8) until sacrifice on day +12. A) Proteinuria levels determined at sacrifice by uristix. B) % of mice in each group at sacrifice that reached the predetermined cut-off value for severe proteinuria of >300 mg/dl. C) Blood Urea Nitrogen levels determined at sacrifice. D) % of mice in each group that reach pre-specified humane end points for sacrifice (>300 mg/dl on two consecutive days, a single value of >2000 mg/dl, or poor general well being. E and F) All groups of mice developed similar titers of E) antirabbit injected Ab and F) anti-GBM Ab. […] (*p<0.05, **p<0.01).
Biological Role of 3-OH-Kynurenamine. Trp metabolites are known to exert several functions in immune cells. In dendritic cells, either cDCs or pDCs, incubation with L-kynurenine and/or 3-OH-anthranilic acid induces IDO1 expression and production of immunosuppressive TGF-β production. […]

## Nc1ccccc1C(=O)C[C@H](N)C(=O)O [L-kynurenine, reference compound]
AhR
  AhR activation (luciferase reporter): activated AhR in a concentration-dependent manner

## Nc1c(O)cccc1C(=O)C[C@H](N)C(=O)O [3-OH-kynurenine]
[1]
  conversion (decarboxylation) by AADC: converted to 3-OH-kynurenamine; also recorded: AADC was capable of inducing 3-OH-kynurenine decarboxylation

## N[C@@H](Cc1c[nH]c2ccccc12)C(=O)O [Trp, Tryptophan]
[1]
  conversion (decarboxylation) by AADC: converted to Tryptamine

## NCCC(=O)c1cccc(O)c1N [3-OH-kynurenamine]
AhR
  AhR activation (luciferase reporter): induced a concentration-dependent AhR activation
AhR; MEFs, 24 hours
  AhR activation relative to L-kynurenine: around 6.5 times
cDCs
  Tgfbl transcripts: significantly upregulates
  idol transcripts: significantly upregulates
[2]
  antigen-specific delayed-type hypersensitivity induced by immunostimulatory cDCs: suppressed antigen-specific delayed-type hypersensitivity
Dendritic cells; cDC, 20 μM, 24 hr, IFNγ/3-OH-kynurenamine vs IFNγ control
  NF-κB inhibitor IKB level (quantitative proteomic): up-regulation of the NF-κB inhibitor IKB
Dendritic cells; dendritic cells, media supplemented with 3-OH-Kynurenamine vs media alone
  MS1 quantification of immunological relevant proteins: down-regulated
NFκB pathway
  NFκB pathway (Western blot, densitometry): downregulation of the NFκB pathway
Psoriasis model; 50 mg/kg
  skin inflammation / clinical and histological manifestation of psoriasis: decreases clinical and histological manifestation of psoriasis; also recorded: decrease skin inflammation
Psoriasis model; H&E staining
  epidermis hyperplasia: statistically significant lower levels
  ortho and parakeratosis: statistically significant lower levels
  rete ridges formation: statistically significant lower levels
[3]
  nephrotoxic nephritis / kidney damage (proteinuria, overall animal survival): attenuates nephrotoxic nephritis (NTN)
[3]; listed as 3-OH-Kynurenamine
  nephrotoxic nephritis / kidney damage (proteinuria, overall animal survival): decrease
